The results in this text go back to ChEMBL document CHEMBL1129533, “Thrombus imaging using technetium-99m-labeled high-potency GPIIb/IIIa receptor antagonists. Chemistry and initial biological studies” (J Med Chem, 1996).

Where a SMILES comes first, the peptide text is derived from it. Bridges are numbered along the chain shown (N, C = ends). [ ]: non-standard residue; d: D form. The star is where a group is joined. Propyl(3-NH2) = NCCC*; Acm = CC(=O)NC*

For the first test, the species on record is Canis familiaris. Nature of the test: Percent injected dose in the blood was determined by canine thrombosis model. In kind it is functional, organism-based. To be noted: Canis lupus familiaris.
`N=C(N)c1ccc(C[C@H]2NC(=O)[C@H](Cc3ccc(O)cc3)NC(=O)CSC[C@H](C(=O)N[C@@H](CCCCN)C(=O)NCC(=O)N[C@@H](CSCC(=O)CC(=O)N[C@@H](CCCCN)C(=O)N[C@@H](CCCCN)C(=O)NCC(=O)N[C@@H](CS)C(=O)O)C(=O)NCC(N)=O)NC(=O)[C@@H](CC(=O)O)NC(=O)CNC2=O)cc1`: the ID/g turned out to be 0.0025%.

The next test is filed under the species Canis familiaris. Put plainly: Percent injected dose in the thrombus was determined by canine thrombosis model. The class given is functional, organism-based. To be noted: Canis lupus familiaris.
Take `N=C(N)c1ccc(C[C@H]2NC(=O)[C@H](Cc3ccc(O)cc3)NC(=O)CSC[C@H](C(=O)N[C@@H](CCCCN)C(=O)NCC(=O)N[C@@H](CSCC(=O)CC(=O)N[C@@H](CCCCN)C(=O)N[C@@H](CCCCN)C(=O)NCC(=O)N[C@@H](CS)C(=O)O)C(=O)NCC(N)=O)NC(=O)[C@@H](CC(=O)O)NC(=O)CNC2=O)cc1`: the ID/g was determined as 0.017%.

The species named for another test is Homo sapiens. Put plainly: Inhibition of ADP-induced platelet aggregation in human platelet rich citreated plasma in presence of 10-20 uM ADP.
Details: not given
The class given is functional.
As a reminder, the IC50 is the point on the concentration scale where inhibition reaches its midpoint. Turning to `CC(=O)NCSC[C@H](NC(=O)CNC(=O)[C@H](CSCNC(C)=O)NC(=O)CNC(=O)[C@H](CCCCN)NC(=O)[C@@H]1CSCC(=O)N[C@H](Cc2ccc(O)cc2)C(=O)N[C@@H](CSCCCN)C(=O)NCC(=O)N[C@@H](CC(=O)O)C(=O)N1)C(N)=O`, the IC50 turned out to be 160 nM.
On the same count and under the same terms, then `N=C(N)c1ccc(C[C@@H]2NC(=O)[C@@H](Cc3ccc(O)cc3)NC(=O)CSC[C@@H](C(=O)N[C@@H](CCCCN)C(=O)NCC(=O)N[C@@H](CS)C(=O)NCC(N)=O)NC(=O)[C@H](CC(=O)O)NC(=O)CNC2=O)cc1`, with 80 nM.
Same read-out and setting: with `CC(=O)NCSC[C@H](NC(=O)CNC(=O)[C@H](CSCNC(C)=O)NC(=O)CNC(=O)CNC(=O)CNC(=O)[C@@H]1CSCC(=O)N[C@H](Cc2ccc(O)cc2)C(=O)N[C@@H](CSCCCN)C(=O)NCC(=O)N[C@@H](CC(=O)O)C(=O)N1)C(N)=O` ({CH2CO}-[dY]C(Propyl(3-NH2))GDCGGGC(Acm)GC(Acm)-NH2; thioether N-5) the figure was 300 nM; with `CC(=O)NCSC[C@H](NC(=O)CNC(=O)CNC(=O)[C@@H]1CSCC(=O)N[C@H](Cc2ccc(O)cc2)C(=O)N[C@@H](CSCCCN)C(=O)NCC(=O)N[C@@H](CC(=O)O)C(=O)N1)C(=O)NCC(=O)N[C@@H](CSCNC(C)=O)C(=O)NCC(=O)NCC(=O)N[C@@H](CSC1CCNC(=O)CNCCNC(=O)CNCCNC(=O)C1)C(N)=O` (some centres not stated), 30 nM; with `NCCCC[C@H](NC(=O)CNC(=O)CNC(=O)[C@@H]1CSCC(=O)N[C@H](Cc2ccc(O)cc2)C(=O)N[C@@H](CSCCCN)C(=O)NCC(=O)N[C@@H](CC(=O)O)C(=O)N1)C(=O)NCC(=O)N[C@@H](CCCCN)C(=O)NCC(=O)N[C@@H](CCCCN)C(=O)N[C@@H](CCCCN)C(=O)NCC(=O)N[C@@H](CS)C(=O)NCC(N)=O`, 110 nM.
As to `CC(=O)NCSC[C@H](NC(=O)CNC(=O)CNC(=O)[C@H]1CSCC(=O)N[C@@H](Cc2ccc(O)cc2)C(=O)N[C@H](CSCCCN)C(=O)NCC(=O)N[C@H](CC(=O)O)C(=O)N1)C(=O)NCC(=O)N[C@@H](CSCNC(C)=O)C(=O)NCC(=O)NCC(=O)N[C@@H](CSCC(=O)CC(=O)N[C@@H](CCCCN)C(=O)N[C@@H](CCCCN)C(=O)NCC(=O)N[C@@H](CS)C(=O)O)C(=O)NCC(=O)[C@@H]1CSC23SCC(NC(=O)[C@H](CSCC(=O)CC(=O)N[C@@H](CCCCN)C(=O)N[C@@H](CCCCN)C(=O)NCC(=O)N[C@@H](CS)C(=O)O)NC(=O)CNC(=O)CNC(=O)[C@H](CSCNC(C)=O)NC(=O)CNC(=O)[C@H](CSCNC(C)=O)NC(=O)CNC(=O)CNC(=O)[C@H]4CSCC(=O)N[C@@H](Cc5ccc(O)cc5)C(=O)N[C@H](CSCCCN)C(=O)NCC(=O)N[C@H](CC(=O)O)C(=O)N4)C(=O)N2CC(=O)N13` (some centres not stated), the IC50 turned out to be 90 nM.
Same read-out and setting: with `NCCCC[C@H](NC(=O)[C@@H]1CSCC(=O)N[C@H](Cc2ccc(O)cc2)C(=O)N[C@@H](CSCCCN)C(=O)NCC(=O)N[C@@H](CC(=O)O)C(=O)N1)C(=O)NCC(=O)N[C@@H](CS)C(=O)NCC(=O)N[C@@H](CS)C(=O)NCC(=O)NCC(=O)N[C@@H](CSC1CC(=O)[N+]2(COC2)C1=O)C(N)=O` (some centres not stated) the figure was 40 nM.
Still for that read-out and setting: then `N=C(N)c1ccc(C[C@@H]2NC(=O)[C@@H](Cc3ccc(O)cc3)NC(=O)CSC[C@@H](C(=O)N[C@@H](CCCCN)C(=O)NCC(=O)N[C@@H](CSCC(=O)CC(=O)N[C@@H](CCCCN)C(=O)N[C@@H](CCCCN)C(=O)NCC(=O)N[C@@H](CS)C(=O)O)C(=O)NCC(N)=O)NC(=O)[C@H](CC(=O)O)NC(=O)CNC2=O)cc1` [listing 1 of 2 here], with 30 nM.
`NCCCC[C@H](NC(=O)[C@@H]1CSCC(=O)N[C@H](Cc2ccc(O)cc2)C(=O)N[C@@H](CSCCCN)C(=O)NCC(=O)N[C@@H](CC(=O)O)C(=O)N1)C(=O)N[C@@H](CS)C(=O)NCC(N)=O`: the IC50 was found to be 140 nM.
Same read-out and setting: then `CC(=O)NCSC[C@H](NC(=O)CNC(=O)CNC(=O)[C@@H]1CSCC(=O)N[C@H](Cc2ccc(O)cc2)C(=O)N[C@@H](CSCCCN)C(=O)NCC(=O)N[C@@H](CC(=O)O)C(=O)N1)C(=O)NCC(=O)N[C@@H](CSCNC(C)=O)C(=O)NCC(=O)NCC(=O)N[C@@H](CSC1CC(=O)[N+]2(CCCCCC2)C1=O)C(N)=O` (some centres not stated), with 140 nM; and `N=C(N)c1ccc(C[C@@H]2NC(=O)[C@@H](Cc3ccc(O)cc3)NC(=O)CSC[C@@H](C(=O)NCC(=O)NCC(=O)N[C@@H](CS)C(=O)NCC(=O)N[C@@H](CS)C(=O)NCC(=O)NCC(=O)N[C@@H](CSCC(=O)CC(=O)N[C@@H](CCCCN)C(=O)N[C@@H](CCCCN)C(=O)NCC(=O)N[C@@H](CS)C(=O)O)C(N)=O)NC(=O)[C@H](CC(=O)O)NC(=O)CNC2=O)cc1`, with 50 nM.
Same read-out and setting: then `CC(=O)NCSC[C@H](NC(=O)CNC(=O)[C@H](CSCNC(C)=O)NC(=O)CNC(=O)CNC(=O)[C@@H]1CSCC(=O)N[C@H](Cc2ccc(O)cc2)C(=O)N[C@@H](CCCN=C(N)N)C(=O)NCC(=O)N[C@@H](CC(=O)O)C(=O)N1)C(N)=O`, with 1300 nM.
Still for that read-out and setting: then `N=C(N)c1ccc(C[C@H]2NC(=O)[C@H](Cc3ccc(O)cc3)NC(=O)CSC[C@H](C(=O)N[C@@H](CCCCN)C(=O)NCC(=O)N[C@@H](CSCC(=O)CC(=O)N[C@@H](CCCCN)C(=O)N[C@@H](CCCCN)C(=O)NCC(=O)N[C@@H](CS)C(=O)O)C(=O)NCC(=O)NCC(=O)[C@@H]3CSC45SCC(NC(=O)CNC(=O)[C@H](CSCC(=O)CC(=O)N[C@@H](CCCCN)C(=O)N[C@@H](CCCCN)C(=O)NCC(=O)N[C@@H](CS)C(=O)O)NC(=O)CNC(=O)[C@H](CCCCN)NC(=O)[C@H]6CSCC(=O)N[C@@H](Cc7ccc(O)cc7)C(=O)N[C@H](Cc7ccc(C(=N)N)cc7)C(=O)NCC(=O)N[C@H](CC(=O)O)C(=O)N6)C(=O)N4CC(=O)N35)NC(=O)[C@@H](CC(=O)O)NC(=O)CNC2=O)cc1` (some centres not stated), with 40 nM; and `C[C@H](NC(=O)[C@H](CS)NC(=O)CNC(=O)[C@H](CCCCN)NC(=O)[C@H](CCCCN)NC(=O)CNC(=O)CNC(=O)[C@H](CCCCN)NC(=O)CNC(=O)CNC(=O)[C@H](CCCCN)NC(=O)[C@@H]1CSCC(=O)N[C@H](Cc2ccc(O)cc2)C(=O)N[C@@H](CSCCCN)C(=O)NCC(=O)N[C@@H](CC(=O)O)C(=O)N1)C(N)=O`, with 80 nM; and `CC(=O)NCSC[C@H](NC(=O)CNC(=O)CNC(=O)[C@@H]1CSCC(=O)N[C@H](Cc2ccc(O)cc2)C(=O)N[C@@H](CSCCCN)C(=O)NCC(=O)N[C@@H](CC(=O)O)C(=O)N1)C(=O)NCC(=O)N[C@@H](CSCNC(C)=O)C(=O)NCC(=O)NCC(=O)N[C@@H](CSCC(=O)CC(=O)N[C@@H](CCCCN)C(=O)N[C@@H](CCCCN)C(=O)N[C@@H](CCCCN)C(=O)N[C@@H](CCCCN)C(=O)NCC(=O)N[C@@H](CS)C(=O)O)C(N)=O`, with 30 nM.
For the compound `CC(=O)NCSC[C@H](NC(=O)CNC(=O)CNC(=O)[C@@H]1CSCC(=O)N[C@H](Cc2ccc(O)cc2)C(=O)N[C@@H](CSCCCN)C(=O)NCC(=O)N[C@@H](CC(=O)O)C(=O)N1)C(=O)NCC(=O)N[C@@H](CSCNC(C)=O)C(=O)NCC(=O)NCC(=O)N[C@@H](CSC1CC(=O)[N+]2(CCCNCCC2)C1=O)C(N)=O` (some centres not stated), the IC50 worked out at 40 nM.
Take `CC(=O)NCSC[C@H](NC(=O)CNC(=O)CNC(=O)[C@@H]1CSCC(=O)N[C@H](Cc2ccc(O)cc2)C(=O)N[C@@H](CSCCCN)C(=O)NCC(=O)N[C@@H](CC(=O)O)C(=O)N1)C(=O)NCC(=O)N[C@@H](CSCNC(C)=O)C(=O)NCC(=O)NCC(=O)N[C@@H](CSCC(=O)CC(=O)N[C@@H](CCCCN)C(=O)N[C@@H](CCCCN)C(=O)NCC(=O)N[C@@H](CS)C(=O)O)C(N)=O`: the IC50 worked out at 110 nM.
For `CC(=O)NCSC[C@H](NC(=O)CNC(=O)[C@H](CSCNC(C)=O)NC(=O)CNC(=O)CNC(=O)CNC(=O)[C@@H]1CSCC(=O)N[C@H](Cc2ccc(O)cc2)C(=O)N[C@@H](CCCN=C(N)N)C(=O)NCC(=O)N[C@@H](CC(=O)O)C(=O)N1)C(N)=O`, the IC50 was determined as 1400 nM.

Tested on in another test: not listed separately
Nature of the test: Thrombus to blood ratio was determined by canine thrombosis model. The class given is functional.
Details: not given
Regarding `N=C(N)c1ccc(C[C@H]2NC(=O)[C@H](Cc3ccc(O)cc3)NC(=O)CSC[C@H](C(=O)N[C@@H](CCCCN)C(=O)NCC(=O)N[C@@H](CSCC(=O)CC(=O)N[C@@H](CCCCN)C(=O)N[C@@H](CCCCN)C(=O)NCC(=O)N[C@@H](CS)C(=O)O)C(=O)NCC(N)=O)NC(=O)[C@@H](CC(=O)O)NC(=O)CNC2=O)cc1`, the Ratio is 7.2.

Tested on in another test: not listed separately
Put plainly: Thrombus to muscle ratio was determined by canine thrombosis model. In kind it is functional, Muscle tissue.
Details: not given
For the compound `N=C(N)c1ccc(C[C@@H]2NC(=O)[C@@H](Cc3ccc(O)cc3)NC(=O)CSC[C@@H](C(=O)N[C@@H](CCCCN)C(=O)NCC(=O)N[C@@H](CSCC(=O)CC(=O)N[C@@H](CCCCN)C(=O)N[C@@H](CCCCN)C(=O)NCC(=O)N[C@@H](CS)C(=O)O)C(=O)NCC(N)=O)NC(=O)[C@H](CC(=O)O)NC(=O)CNC2=O)cc1` [listing 2 of 2 here], the Ratio was determined as 41.
